Assay results taken from patent US20250115571A1, “OXOPIPERAZINE DERIVATIVES” (Inthera Bioscience AG, priority 2017, published 2025).

Assays:
[1] = test system: HCT116; test: 5-day cell proliferation assay (CTG); assay type: cell-based; conditions: Homo sapiens, HCT-116, 120 h, HCT116, Colorectal
Protocol: (§1) For screening using a proliferation assay, the cells used were cultured at 37° C. with 5% CO2, except for those being cultured with L-15 medium (37° C. and 100% air, TABLE 7). Compound stock solutions (10 mM) were made in sterile water, aliquoted and stored at room temperature. Cisplatin was used as reference Control. Plastic consumables, culture media and supplements were purchased from well-known suppliers (TABLE 8).
(§2) Cell seeding (day −1). When necessary, cells were trypsinized using standard methods (see e.g. example 01). Cells were collected and resuspended in 5-6 mL of appropriate culture medium, counted and diluted to the needed density. Fifty-four μl (microliter) cells were seeded per well in a 384-well plate. Extra four wells per cell line were seeded on an additional plate for Day 0 reading (baseline cell density). Cells were incubated at 37° C. overnight.
(§3) Compound treatment and Day 0 reading (day 0). Tenfold final concentration of test compounds and Cisplatin were prepared in cell culture media (work dilutions). Six μl of work dilution solutions were dispensed into the corresponding wells in 384-well plates to bring the total volume up to 60 μl. Conditions were tested in triplicate. The plates were then incubated at 37° C. for five days. For the day 0 reading, 30 μl of CTG and 6 μl cell culture medium were added to the day 0 plates, contents mixed for 2 min on a plate shaker, and the plates incubated for 10 min at room temperature in the dark. Luminescence was recorded on an EnVision Multi Label Reader (2104-0010A, PerkinElmer, USA).
(§4) Endpoint CTG reading (day 5). The amounts of cells in the plates was determined by endpoint CTG-test. Thirty μl of CTG were added to the 60 μl of cell culture per well, contents mixed for 2 min on a plate shaker, and the plates incubated for 10 min at room temperature in the dark. Luminescence was recorded on an EnVision Multi Label Reader.
(§5) Data analysis. Fifty percent growth inhibition concentrations (GI50) were calculated based on percentage of control data (untreated cells) from each cell line (TABLE 5 (this example) and TABLE 6). Curves were fitted using a nonlinear regression model with a sigmoidal dose response. Examples of obtained curves are depicted in FIG. 2A-2F.

[2] = test system: HDFA (fibroblast); test: 5-day cell proliferation assay (CTG); assay type: cell-based; conditions: Homo sapiens, 120 h, Skin, highest tested concentration 10 μM
Protocol: as §1, §2, §3, §4, §5

[3] = test system: HS 746.T; test: 5-day cell proliferation assay (CTG); assay type: cell-based; conditions: Homo sapiens, Hs746T, 120 h, Stomach/Gastric
Protocol: as §1, §2, §3, §4, §5

[4] = test system: HS-5; test: 5-day cell proliferation assay (CTG); assay type: cell-based; conditions: Homo sapiens, HS5, 120 h; HS-5, 5-day cell proliferation
Protocol: as §1, §2, §3, §4, §5

[5] = test system: HT-29; test: 5-day cell proliferation assay (CTG); assay type: cell-based; conditions: Homo sapiens, 120 h, HT-29, Colorectal
Protocol: as §1, §2, §3, §4, §5

[6] = test system: MRC-5; test: 5-day cell proliferation assay (CTG); assay type: cell-based; conditions: Homo sapiens, MRC5, 120 h, MRC-5, Lung
Protocol: as §1, §2, §3, §4, §5

[7] = test system: RPWE-1; test: 5-day cell proliferation assay (CTG); assay type: cell-based; conditions: Homo sapiens, 120 h, RPWE-1 (Table 6: RWPE-1), Prostate
Protocol: as §1, §2, §3, §4, §5

[8] = test system: SNU-16; test: 5-day cell proliferation assay (CTG); assay type: cell-based; conditions: Homo sapiens, 120 h, SNU-16, Stomach/Gastric
Protocol: as §1, §2, §3, §4, §5

[9] = test system: SNU-5; test: 5-day cell proliferation assay (CTG); assay type: cell-based; conditions: Homo sapiens, 120 h, SNU-5, Stomach/Gastric
Protocol: as §1, §2, §3, §4, §5

[10] = test system: SW48; test: 5-day cell proliferation assay (CTG); assay type: cell-based; conditions: Homo sapiens, 120 h, SW48, Colorectal
Protocol: as §1, §2, §3, §4, §5

[11] = test system: SW620; test: 5-day cell proliferation assay (CTG); assay type: cell-based; conditions: Homo sapiens, SW-620, 120 h, SW620, Colorectal
Protocol: as §1, §2, §3, §4, §5

[12] = test system: SW948; test: 5-day cell proliferation assay (CTG); assay type: cell-based; conditions: Homo sapiens, 120 h, SW948, Colorectal
Protocol: as §1, §2, §3, §4, §5

[13] = test system: patient-derived castration-resistant prostate tumor cells (model #PR6511); test: Castration resistant prostate cancer patient-derived xenograft (CRPC PDX); assay type: in vivo, mouse; conditions: for CR (complete regression) = number of mice / PR (partial regression) = number of mice / TFS (Tumor Free Survival) = number of complete regressions recorded up to Group Day End: groups of eight mice
Protocol: NSG NOD.Cg-PrkdcscidIj2rgtm1Wjl/SzJ mice (6-8 weeks of age) were injected with patient-derived castration-resistant prostate tumor cells (model #PR6511, Crown Bioscience UK Ltd Hillcrest, Osgathorpe Leicestershire, UK). The cells were inoculated subcutaneously into the left flank of 40 male NSG mice. When tumors reached a mean volume of approximately 100 mm^3 (i.e. 100 mm^3+/−54 mm^3, FIG. 3), mice were randomly assigned to five treatment groups of each eight mice (TABLE 9). Body weights were measured three times weekly prior to the initiation of dosing and daily thereafter. Tumor burden was assessed by caliper measurement three times weekly. Dosing breaks were applied when tolerability issues arose (body weight loss>10). Upon completion of the scheduled dosing phase at day 57, tumor outgrowth was monitored for groups 3, 4 and […] up to study day 77. Groups 1 and 2 were terminated on study day 57. Results of the experiment are shown in TABLES 10 and 11; and FIGS. 3 and 4. The experiment was performed in the Crown Bioscience Ltd. testing facility (Crown Bioscience UK Ltd Hillcrest, Dodgeford Lane, Osgathorpe Leicestershire LE12 9TE, UK).

[14] = test system: MKN45 human gastric adenocarcinoma cells; test: Cell-derived xenograft mouse model for gastric cancer (MKN45 CDX); assay type: in vivo; conditions: p.o.; for Tumor Size day 29: MKN45 CDX, female BALB/c nude mice, Mean ± SEM; for T/C: day 29, tumor-to-control ratio (volume/volume)
Protocol: Female BALB/c nude mice (8-9 weeks of age) were injected with MKN45 human gastric adenocarcinoma cells. The cells were inoculated subcutaneously into the left flank of 48 mice. When tumors reached a mean volume of approximately 103 mm^3, mice were randomly assigned to eight treatment groups of each six mice (TABLE 16). Body weights were measured three times weekly prior to the initiation of dosing and daily thereafter. Tumor burden was assessed by caliper measurement twice weekly. Dosing breaks were applied when tolerability issues arose (body weight loss>10%). The study was terminated four weeks post first dosing. The experiment was performed in the Crown Bioscience Ltd. (Beijing) testing facility (Ground Floor, Light Muller Building, Changping Sector of Zhongguancun Scientific Park, No. 21 Huoju Road, Changping District, Beijing, CHN).

[15] = 6 mg/kg p.o. QD, n.s. = not significant
[16] = p.o. QD, 10 mg/kg, 3 mg/kg from day 51 on

SMILES	GI50 [1]	GI50 [2]	GI50 [3]	GI50 [4]	GI50 [5]	GI50 [6]	GI50 [7]	GI50 [8]	GI50 [9]	GI50 [10]	GI50 [11]	GI50 [12]	TWO-WAY ANOVA p (tumor size at the end of the study) vs. Compound 258 10 mg/kg [13, 15]	TWO-WAY ANOVA p (tumor size at the end of the study) vs. Enzalutamide ([13]; 6 mg/kg, p.o. QD)	TWO-WAY ANOVA p (tumor size at the end of the study) vs. Vehicle ([13]; 6 mg/kg, p.o. QD)	CR (complete regression) = number of mice ([13]; p.o. QD, 6 mg/kg)	PR (partial regression) = number of mice ([13]; p.o. QD, 6 mg/kg)	TFS (Tumor Free Survival) = number of complete regressions recorded up to Group Day End ([13]; p.o. QD, 6 mg/kg)	Tumor Size day 29 ([14]; 3 mg/kg, QD)	T/C ([14]; 3 mg/kg, QD)	further results
CC(C)C[C@@H]1NCCN([C@@H](CC(C)C)C(=O)N2CCC3(C[C@@H]2C)OCC(CN2CCCC2)CO3)C1=O (stereo partly drawn) [Compound 258, (3S)-1-[(2S)-4-methyl-1-oxo-1-[(3s,6s,8S)-8-methyl-3-(pyrrolidin-1-ylmethyl)-1,5-dioxa-9-azaspiro[5.5]undec-an-9-yl]pentan-2-yl]-3-(2-methylpropyl)piper-azin-2-one (^≠), isomer Z]	5 nM	> 10000 nM	8 nM	5 nM	4 nM	12 nM	4 nM	13 nM	4 nM	9 nM	4 nM	10 nM	n.s.	p < 0.0001	p < 0.0001	3	2	3	428.0 ± 52.5 mm^3	36.0%	TWO-WAY ANOVA p (tumor size at the end of the study) vs. Enzalutamide ([13]; 10 mg/kg p.o. QD): p < 0.0001; TWO-WAY ANOVA p (tumor size at the end of the study) vs. Vehicle ([13]; 10 mg/kg p.o. QD): p < 0.0001; CR (complete regression) = number of mice [13, 16]: 4; PR (partial regression) = number of mice [13, 16]: 2; TFS (Tumor Free Survival) = number of complete regressions recorded up to Group Day End [13, 16]: 3; Tumor Size day 29 ([14]; 6 mg/kg, QD): 186.9 ± 17.3 mm^3; T/C ([14]; 6 mg/kg, QD): 15.7%; Tumor Size day 29 ([14]; 20 mg/kg, BIW): 763.4 ± 84.5 mm^3; T/C ([14]; 20 mg/kg, BIW): 64.2%
CC(C)C[C@@H]1NCCN([C@@H](CC(C)C)C(=O)N2CCC3(C[C@@H]2C)OCC(CN2CCC4(CC2)CC4)CO3)C1=O (stereo partly drawn) [Compound 279, (3S)-1-[(2S)-4-methyl-1-oxo-1-[(3s,6s,8S)-3-{6-azaspiro[2.5]octan-6-ylmethyl}-8-methyl-1,5-dioxa-9-azaspiro[5.5]undec-an-9-yl]pentan-2-yl]-3-(2-methylpropyl)piper-azin-2-one (^≠), isomer Z]	3 nM	> 10000 nM	5 nM	3 nM	4 nM	10 nM	3 nM	10 nM	3 nM	6 nM	2 nM	3 nM	–	–	–	–	–	–	–	–	–
CC(C)C[C@@H]1NCCN([C@@H](CC(C)C)C(=O)N2CCC3(C[C@@H]2C)OCC(CN2CCC2)CO3)C1=O (stereo partly drawn) [Compound 284, (3S)-1-[(2S)-4-methyl-1-oxo-1-[(3s,6s,8S)-3-(azetidin-1-ylmethyl)-8-methyl-1,5-dioxa-9-azaspiro[5.5]undec-an-9-yl]pentan-2-yl]-3-(2-methylpropyl)piper-azin-2-one (^≠), isomer Z]	9 nM	> 10000 nM	14 nM	10 nM	7 nM	25 nM	10 nM	22 nM	6 nM	14 nM	7 nM	12 nM	n.s.	p < 0.0001	p < 0.0001	3	2	3	709.0 ± 55.6 mm^3	59.6%	TWO-WAY ANOVA p (tumor size at the end of the study) vs. Compound 258 6 mg/kg [13, 15]: n.s.; Tumor Size day 29 ([14]; 6 mg/kg, QD): 592.6 ± 109.7 mm^3; T/C ([14]; 6 mg/kg, QD): 49.8%
